A melting point compilation (Tetko et al.; mined from patent text by program, amines drawn as free bases though some values may be those of a salt)

Row | melting point | Structure (SMILES)
1 | 210 °C | Cc1ccc(C(=C2CN(C(c3ccccc3)c3ccccc3)C2)S(C)(=O)=O)cc1
2 | 173 °C | CC1(C)CC(=O)C(c2c[nH]c3ccccc23)C(=O)C1
3 | 149 to 150 °C | O=C1Cc2cc(OCCN3CCC(Cc4ccc(F)cc4)CC3)ccc2N1
4 | 199 to 201 °C | Cc1c(-c2ccncc2)[nH]c(-c2ccncc2)c1C(=O)CC(C)C
5 | 110 °C | NC(=O)NCCS(=O)Cc1ccccc1 (stereo unspecified)
6 | 138 to 141 °C | CCOC(=O)CC(=O)Nc1nc(C)cs1
7 | 245 to 246 °C | CC1(C)OC(=O)Nc2ccc(-c3cc(Cl)cc(Cl)c3)cc21
8 | 75 °C | O=C(c1ccc(F)cc1)N1CCC[C@H](c2noc(Cc3ccccc3)n2)C1
9 | 200 to 202 °C | Cc1cc(C)c(Nc2nc(C)ncc2S(=O)(=O)c2ccc(NCc3ccccc3)cc2)c(C)c1
10 | 200 to 202 °C | COc1cc(-c2cc(O)n(C)n2)cc([N+](=O)[O-])c1OC
11 | 195 to 196 °C | CCc1nc2c(N)nc3ccccc3c2n1CCCC1(C)OCCO1
12 | < 30 °C | CCCCCCCCOCCCCC(=O)O
13 | 136 °C | CC(C)[C@]1(c2ccccc2OCC#CCCl)Sc2ccccc2N(C)C1=O
14 | 246 °C | CS(=O)(=O)c1cccc(NC(=O)c2cnn3c(C(F)(F)F)cc(-c4ccc(C(F)(F)F)c(F)c4)nc23)c1
15 | 180 to 183 °C | O=[N+]([O-])c1oc2cc3c(cc2c1-c1ccccc1)OCO3
16 | 203 to 205 °C | CC(C)(C)c1nc(C#N)nc(C(C)(C)C)c1O
17 | 82.4 to 83 °C | COC(=O)CC(C(=O)c1ccc(SC)cc1)c1ccccc1 (stereo unspecified)
18 | 186 to 218 °C | ON=C(c1ccc(Cl)cc1)C1(n2cncn2)CC1
19 | 128 to 130 °C | CCOCCc1c(N=[N+]=[N-])nc(NC(=O)NC)nc1-c1ccccc1
20 | 230 to 231 °C | CNC(=O)c1sc(C(C)(C)C)cc1N

Row | melting point | Structure (SMILES)
21 | 210 to 212 °C | NC(Cc1cc(O)c2c(c1)C(=O)c1cccc(O)c1C2=O)C(=O)O (stereo unspecified)
22 | 118 to 120 °C | COC(=O)C(c1ccccc1Cl)N1CCc2sc(OC(=O)C(C)(C)C)cc2C1 (stereo unspecified)
23 | 117 to 120 °C | CC(C)(C)OC(=O)N1CCc2c(n(CCO)c3c(Cl)c(Cl)ccc23)CC1
24 | 78 to 80 °C | Cc1cc(-c2noc(C(F)F)n2)cc(C)c1OCCCc1cncs1
25 | 142 to 143 °C | CNC=Nc1cnc2ccccc2c1
26 | 77 to 79 °C | C=C=Cn1c(C)c(C)c2cnnc(OCc3ccccc3)c21
27 | 158 to 160 °C | O=C1N(CCN2CCC(c3noc4cc(F)ccc34)CC2)CCN1c1ccccc1
28 | 154 to 155 °C | COc1ccc(C(O)C(C)=CC(=O)O)c(C(C)C)c1OC (stereo unspecified)
29 | 165 to 166 °C | CNC(=O)c1cccc(NC(=O)Cc2cccc(Cl)c2)c1
30 | 90 °C | N#CCCn1c(-c2ccccc2)cc2ccccc21
31 | 227 °C | CN1CCN(c2nc3sc4c(NCCCn5ccnc5)ncnc4c3c3c2COC(C)(C)C3)CC1
32 | 150 to 151 °C | COC(C)(C)OCC(C)C1CCC2C3C=CC4=CC(=O)C5OC5C4(C)C3CCC12C (stereo unspecified)
33 | 98 to 100 °C | CCOC(=O)C1=C(C(OCC)OCC)NC(C)=C(C(=O)OCCO)C1c1cccc([N+](=O)[O-])c1 (stereo unspecified)
34 | 150 to 152 °C | NC(=O)c1ccc(OC(F)(F)C(F)(F)Br)cc1
35 | 103 to 106 °C | CCc1nc2c(C)cc(C)nc2n1Cc1ccc(C(c2ccccc2)C(C)(C)C(=O)O)cc1 (stereo unspecified)
36 | 105 to 107 °C | CCOCCn1c(COc2cccc(CO)c2)nc2ccccc21
37 | 239 to 240 °C | CCc1c(C(=O)OC(C)C)ncc2[nH]c3ccc4nc(C)sc4c3c12
38 | 137 to 138 °C | c1ccc(-c2nsc(N3CCN(c4ccccn4)CC3)n2)cc1
39 | > 300 °C | CC(=O)Nc1ccc(/C=C/c2cc(/C=C/c3ccc4cc[nH]c4c3)[nH]n2)cc1

Row | Structure (SMILES) | melting point
40 | CC(C)CC12CCC3C4CCC(=O)C=C4CCC3C1CCC2OC(=O)CCc1ccccc1 (stereo unspecified) | 101 to 106 °C
41 | CC1(C)COC(=O)N1Br | 118 to 120 °C
